According to patent US5453518A, “Flavone derivatives” (Recordati S.A., Chemical and Pharmaceutical Company, priority 1992, dated 1995):
Structures can show the parent of a compound that is named as a salt. Where two headings read alike, the source gives them in different places.

How the values were obtained:
[1] = tested on: rat bladder (K^+ -induced contractions); experiment: Inhibition of K^+ -induced rat bladder contractions; set-up: species or system rat (male Sprague Dawley); conditions: for IC50: 0.5 h, KCl 80 mM, 30 min after drug, isolated rat bladder; for activity of N-oxide compounds: in words, based on the Table
Method: Female Albino Swiss mice [Crl: CD-1 (ICR) BR] with a body weight of 20-30 g and male Sprague Dawley rats [Crl: CD° BR] with a body weight of 200-300 g, from the Charles River Farm, Italy, were used for the trials. The animals were housed with free access to food and water and kept on a forced light-darkness cycle at 22°-24° C. until the day of the trials. Male rats were killed by a blow on their heads and their lower abdomens were opened along the midlines. Their urinary bladders were removed by a transverse dissection above the trigone and cut into two fragments (20-30 mm long, 1-2 mm wide). Each fragment was suspended in an isolated organ bath containing 10 ml of a normal Tyrode solution (composition in mM: NaCl 137, KCl 2.68, MgCl2 1.11, CaCl2 1.8, NaH2 PO4 0.41, NaHCO3 11.9, glucose 5.55) and connected, under a steady 1 g load, to an isometric transducer (DY-1, Basile). The solution was gassed with a mixture of 95% O2 and 5% CO2 and heated at 37° C. After a 60 minute equilibration the tension responses to a single KCl dose (Bath concentration=80 mM) inducing phasic and tonic contractions were measured under isometric conditions at 30 minute intervals. After recording one or more reproducible responses, a solution of the test drug was added to the bath (final concentration from 10^-4 to 10^-9 M) and 30 minutes later a new contraction was induced. The experimental groups were made up of at least 2 preparations from different animals for each drug concentration tested. The IC50 values of the inhibition of the agonist-induced contractions were evaluated by linear regression analysis.

[2] = Acute toxicity in mice (LD50); assay type: in vivo; conditions: mouse, in vivo, mice, death rate 7 days after administration
Method: (§1) Female Albino Swiss mice [Crl: CD-1 (ICR) BR] with a body weight of 20-30 g and male Sprague Dawley rats [Crl: CD° BR] with a body weight of 200-300 g, from the Charles River Farm, Italy, were used for the trials. The animals were housed with free access to food and water and kept on a forced light-darkness cycle at 22°-24° C. until the day of the trials.
(§2) The acute toxicity was evaluated in female Albino Swiss mice after intraperitoneal or oral administrations. Four logarithmic scaled doses of the compounds were dissolved or suspended in 0.5% aqueous Methocel and administered at a volume of 10 ml/kg to groups of 4 mice/dose. The death rate was recorded 7 days after the administration.
(§3) The LD50 values and the relevant confidence limits were calculated according to the method of Weil (Biometrics, 8, 249, 1952).

[3] = Stability at 37° C. and physiological pH (phosphate buffer, pH=7.4); assay type: physicochemical; conditions: pH 7.4 phosphate buffer, read-out: Stability at pH 7.4, % Unchanged after 3 h
Excerpt: The stability of the other compounds of the invention was not investigated as they are known to be less subject to degradation than the esters.

Female Albino Swiss mice = experiment: Acute toxicity in mice (LD50); assay type: in vivo; conditions: in words; LD50/IC50 compared with Flavoxate
Method: as §1, §2, §3

[4] = phasic contraction, read-out: IC50, inhibition of K^+ -induced rat bladder contractions, Phasic
[5] = tonic contraction, read-out: IC50, inhibition of K^+ -induced rat bladder contractions, Tonic
[6] = ip, i.p., read-out: Mice LD50 i.p.
[7] = po, p.o., read-out: Mice LD50 p.o.

| SMILES | IC50 [1, 4] | IC50 [1, 5] | LD50 at 168 h [2, 6] | LD50 at 168 h [2, 7] | activity of N-oxide compounds [1] | remaining at 3 h [3] | relative therapeutic index (LD50/IC50) versus Flavoxate (Female Albino Swiss mice) |
| --- | --- | --- | --- | --- | --- | --- | --- |
| COc1ccc(C(C#N)(CCCN(C)CC(=O)c2cccc3c(=O)c(C)c(-c4ccccc4)oc23)C(C)C)cc1OC.Cl.O (centres unmarked) [Example 1, 8-{2-[4-Cyano-4-(3,4-dimethoxyphenyl)-5,N-dimethylhexylamino]-1-oxoethyl}-3-methyl-4-oxo-2-phenyl-4H-1-benzopyran hydrochloride hydrate] | 10000 nM | > 10000 nM | 475 mg/kg | > 3000 mg/kg |  |  |  |
| COc1ccc(CCN(C)CCCOC(=O)c2cccc3c(=O)c(C)c(-c4ccccc4)oc23)cc1OC.Cl [Example 2, 8-{3-[2-(3,4-Dimethoxyphenyl)-N-methylethylamino]propoxycarbonyl}-3-methyl-4-oxo-2-phenyl-4H-1-benzopyran hydrochloride] | 1000 nM | 500 nM | 773 mg/kg | 2260 mg/kg |  |  |  |
| COc1ccc(CC[N+](C)([O-])CCCOC(=O)c2cccc3c(=O)c(C)c(-c4ccccc4)oc23)cc1OC (centres unmarked) [Example 3, 8-{3-[2-(3,4-Dimethoxyphenyl)-N-methyl-N-oxoethylamino]-propoxycarbonyl}-3-methyl-4-oxo-2-phenyl-4H-1-benzopyran hydrochloride] | > 10000 nM | > 10000 nM | > 1000 mg/kg | > 3000 mg/kg | do not appear to be very active |  |  |
| COc1ccc(C(C#N)(CCCN(C)CCCOC(=O)c2cccc3c(=O)c(C)c(-c4ccccc4)oc23)C(C)C)cc1OC.Cl (centres unmarked) [Example 4, 8-{3-[4-Cyano-4-(3,4-dimethoxyphenyl)-N,5-dimethylhexylamino]propoxycarbonyl}-3-methyl-4-oxo-2-phenyl-4H-1-benzopyran hydrochloride] | 500 nM | 1300 nM | > 1000 mg/kg | > 3000 mg/kg |  | 100% |  |
| COc1ccc(C(C#N)(CCC[N+](C)([O-])CCCOC(=O)c2cccc3c(=O)c(C)c(-c4ccccc4)oc23)C(C)C)cc1OC (centres unmarked) [Example 5, 8-{3-[4-Cyano-4-(3,4-dimethoxyphenyl)-N,5-dimethyl-N-oxohexylamino]propoxycarbonyl}-3-methyl-4-oxo-2-phenyl-4H-1-benzopyran hydrochloride x 0.25 H2 O] | 10000 nM | 2200 nM | > 1000 mg/kg | > 3000 mg/kg | do not appear to be very active |  |  |
| CCN(CCCOC(=O)c1cccc2c(=O)c(C)c(-c3ccccc3)oc12)C(C)Cc1ccc(OC)cc1.Cl (centres unmarked) [Example 6, 8-{3-[N-Ethyl-3-(4-methoxyphenyl)-2-propylamino]propoxycarbonyl}-3-methyl-4-oxo-2-phenyl-4H-1-benzopyran hydrochloride] | 1700 nM | 4200 nM | > 1000 mg/kg | > 3000 mg/kg |  | 99% |  |
| COc1ccc(CC2c3cc(OC)c(OC)cc3CCN2CCCOC(=O)c2cccc3c(=O)c(C)c(-c4ccccc4)oc23)cc1OC (centres unmarked) [Example 7, 8-{3-[1-(3,4-Dimethoxybenzyl)-6,7-dimethoxy-2H-1,2,3,4-tetrahydro-2-isoquinolinyl]propoxycarbonyl}-3-methyl-4-oxo-2-phenyl-4H-1-benzopyran hydrochloride] | 1400 nM | 900 nM | > 1000 mg/kg | > 3000 mg/kg |  | 99% |  |
| COc1ccc(C(C#N)(CCCN(C)CCCNC(=O)c2cccc3c(=O)c(C)c(-c4ccccc4)oc23)C(C)C)cc1OC (centres unmarked) [Example 11, 8-{3-[4-Cyano-4-(3,4-dimethoxyphenyl)-N,5-dimethylhexylamino]propylcarbamoyl}-3-methyl-4-oxo-2-phenyl-4H-1-benzopyran hydrochloride hemihydrate] | 600 nM | 500 nM | 224 mg/kg | 400 mg/kg |  |  | considerably safer than Flavoxate |
| COc1ccc(CCN(C)CCCNC(=O)c2cccc3c(=O)c(C)c(-c4ccccc4)oc23)cc1OC [Example 12, 8-{3-[2-(3,4-Dimethoxyphenyl)-N-methylethylamino]propylcarbamoyl}-3-methyl-4-oxo-2-phenyl-4H -1-benzopyran hydrochloride 0.3-hydrate] | 2200 nM | 1400 nM | 129 mg/kg | 716 mg/kg |  |  |  |
| COc1ccc(C(C#N)(CCCN(C)CCNC(=O)c2cccc3c(=O)c(C)c(-c4ccccc4)oc23)C(C)C)cc1OC (centres unmarked) [Example 13, 8-{2-[4-Cyano-4-(3,4-dimethoxyphenyl)-N,5-dimethylhexylamino]ethylcarbamoyl}-3-methyl-4-oxo-2-phenyl-4H-1-benzopyran hydrochloride hemihydrate] | 300 nM | 100 nM | 422 mg/kg |  |  |  |  |
| COc1ccc(C(C#N)(CCCN(C)CC(=O)NCc2cccc3c(=O)c(C)c(-c4ccccc4)oc23)C(C)C)cc1OC.Cl.O.O (centres unmarked) [Example 16, 8-{2-[4-Cyano-4-(3,4-dimethoxyphenyl)-N,5-dimethylhexylamino]-1-oxoethylaminomethyl}-3-methyl-4-oxo-2-phenyl-4H -1-benzopyran hydrochloride dihydrate] | 500 nM | 900 nM | 440 mg/kg | 1280 mg/kg |  |  |  |
| COc1ccc(C(C#N)(CCCN(C)CC(=O)N(C)Cc2cccc3c(=O)c(C)c(-c4ccccc4)oc23)C(C)C)cc1OC.Cl.O (centres unmarked) [Example 17, 8-{2-[4-Cyano-4-(3,4-dimethoxyphenyl)-N,5-dimethylhexylamino]-N-methyl-1-oxo-ethylaminomethyl}-3-methyl-4-oxo-2-phenyl-4H-1-benzopyran hydrochloride hydrate] | 200 nM | 400 nM | 334 mg/kg | 1710 mg/kg |  |  |  |
| COc1ccc(C(C#N)(CCCN(C)CCOCc2cccc3c(=O)c(C)c(-c4ccccc4)oc23)C(C)C)cc1OC.Cl.O (centres unmarked) [Example 18, 8-{2-[4-Cyano-4-(3,4-dimethoxyphenyl)-5,N-dimethylhexylamino]ethoxymethyl}-3-methyl-4-oxo-2-phenyl-4H-1-benzopyran hydrochloride hydrate] | 300 nM | 400 nM | 334 mg/kg | 974 mg/kg |  |  |  |
| COc1ccc(C(C#N)(CCCN(C)CCSCc2cccc3c(=O)c(C)c(-c4ccccc4)oc23)C(C)C)cc1OC.Cl (centres unmarked) [Example 19, 8-{2-[4-Cyano-4-(3,4-dimethoxyphenyl)-5,N-dimethylhexylamino]ethylthiomethyl}-3-methyl-4-oxo-2-phenyl-4H-1-benzopyran hydrochloride] | 500 nM | 1300 nM | > 1000 mg/kg | > 3000 mg/kg |  |  |  |
| COc1ccc(C(C#N)(CCCN(C)CCS(=O)(=O)Cc2cccc3c(=O)c(C)c(-c4ccccc4)oc23)C(C)C)cc1OC (centres unmarked) [Example 20, 8-{2-[4-Cyano-4-(3,4-dimethoxyphenyl)-5,N-dimethylhexylamino]ethylsulphonylmethyl}-3-methyl-4-oxo-2-phenyl-4H-1-benzopyran hydrochloride hemihydrate] | 500 nM | 500 nM | > 1000 mg/kg | > 3000 mg/kg |  |  |  |
